Publication PMC7866863, “A Cellular Assay for the Identification and Characterization of Connexin Gap Junction Modulators” (International Journal of Molecular Sciences, 2021)

Biological target: T1, Cx43 (connexin 43 gap junction) (Mus musculus, UniProt P23242)
T1 construct: gene Gja1; mouse Cx43 coding region, recombinantly expressed in HeLa donor and biosensor cells
Test: HeLa coculture cAMP-transfer GloSensor luminescence assay for Cx43 gap junctions
Type: cell-based

T1 sequence (P23242 2-382): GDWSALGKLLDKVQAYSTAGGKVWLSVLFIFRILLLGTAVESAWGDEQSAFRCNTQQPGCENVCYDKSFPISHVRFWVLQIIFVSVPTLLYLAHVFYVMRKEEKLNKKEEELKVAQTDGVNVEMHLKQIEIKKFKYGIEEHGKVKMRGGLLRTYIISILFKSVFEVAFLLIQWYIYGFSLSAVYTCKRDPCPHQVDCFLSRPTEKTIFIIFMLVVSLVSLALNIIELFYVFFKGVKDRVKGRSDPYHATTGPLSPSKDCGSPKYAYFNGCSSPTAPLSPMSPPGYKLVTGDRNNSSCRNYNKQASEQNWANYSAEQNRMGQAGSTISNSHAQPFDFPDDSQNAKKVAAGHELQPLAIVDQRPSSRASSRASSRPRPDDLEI

`CC1(C)[C@@H](OC(=O)CCC(=O)O)CC[C@]2(C)[C@H]3C(=O)C=C4[C@@H]5C[C@@](C)(C(=O)O)CC[C@]5(C)CC[C@@]4(C)[C@]3(C)CC[C@@H]12` [carbenoxolone] gave an IC50 of 44.5 ± 4.8 µM.
